# Data taken from ChEMBL document CHEMBL3885861, “Open TG-GATES”.
# Species on record: Rattus norvegicus
# Test: Open TG-GATES - Regimen: Daily Repeat
# Format: toxicity, organism-based, Sprague-Dawley
# Set-up: regimen Daily Repeat, gender Male, age 6 weeks
# Details: in vivo, po, 0 mg/kg, […], route gavage, dose level Control; for LIVER: tissue Liver; for A/G / ALP / ALT / AST / BUN / CRE / Ca / Cl / DBIL / GLC / IP / K / LDH / Na / PL / RALB / TBIL / TC / TG / TP / gamma-GTP: tissue Plasma
structure (smiles),measurement,setting,value
C=C(C)[C@H]1Cc2c(ccc3c2O[C@@H]2COc4cc(OC)c(OC)cc4[C@@H]2C3=O)O1 [ROTENONE],Fbg,"tissue Blood, time 28 day",217.6 mg/dL
same,Hb,"tissue Blood, time 28 day",14.9 g/dL
same,Ht,"tissue Blood, time 28 day",45%
same,Lym,"tissue Blood, time 28 day",72%
same,MCH,"tissue Blood, time 28 day",19.7 pg
same,MCHC,"tissue Blood, time 28 day",33.1%
same,MCV,"tissue Blood, time 28 day",59.3 fL
same,Mono,"tissue Blood, time 28 day",7.2%
same,Neu,"tissue Blood, time 28 day",19.8%
same,PT,"tissue Blood, time 28 day",12.5 s
same,Plat,"tissue Blood, time 28 day",115 x10_4/uL
same,RBC,"tissue Blood, time 28 day",758.8 x10_4/ul
same,Ret,"tissue Blood, time 28 day",2%
same,WBC,"tissue Blood, time 28 day",107.2 x10_2/uL
same,LIVER,time 7 day,12.8 g
same,LIVER,time 14 day,14.2 g
same,LIVER,time 28 day,15.3 g
same,A/G,time 7 day,2.1
same,ALP,time 7 day,1286.8 IU/L
same,ALT,time 7 day,35.2 IU/L
same,AST,time 7 day,60.6 IU/L
same,BUN,time 7 day,19 mg/dL
same,CRE,time 7 day,0.4 mg/dL
same,Ca,time 7 day,11.5 mg/dL
same,Cl,time 7 day,104.6 meq/L
same,DBIL,time 7 day,0.014 mg/dL
same,GLC,time 7 day,195.4 mg/dL
same,IP,time 7 day,7.7 mg/dL
same,K,time 7 day,4.5 meq/L
same,LDH,time 7 day,71.8 IU/L
same,Na,time 7 day,140.4 meq/L
same,PL,time 7 day,157.2 mg/dL
same,RALB,time 7 day,3.9 g/dL
same,TBIL,time 7 day,0.034 mg/dL
same,TC,time 7 day,81.2 mg/dL
same,TG,time 7 day,132.2 mg/dL
same,TP,time 7 day,5.8 g/dL
same,gamma-GTP,time 7 day,1 IU/L
same,A/G,time 14 day,2.1
same,ALP,time 14 day,1512 IU/L
same,ALT,time 14 day,36.4 IU/L
same,AST,time 14 day,67.2 IU/L
same,BUN,time 14 day,18.4 mg/dL
same,CRE,time 14 day,0.4 mg/dL
same,Ca,time 14 day,11.5 mg/dL
same,Cl,time 14 day,104.8 meq/L
same,DBIL,time 14 day,0.01 mg/dL
same,GLC,time 14 day,186 mg/dL
same,IP,time 14 day,6.9 mg/dL
same,K,time 14 day,4.5 meq/L
same,LDH,time 14 day,111.6 IU/L
same,Na,time 14 day,139.6 meq/L
same,PL,time 14 day,156 mg/dL
same,RALB,time 14 day,4 g/dL
same,TBIL,time 14 day,0.03 mg/dL
same,TC,time 14 day,80 mg/dL
same,TG,time 14 day,131.8 mg/dL
same,TP,time 14 day,5.9 g/dL
same,gamma-GTP,time 14 day,1 IU/L
same,A/G,time 28 day,2
same,ALP,time 28 day,1248 IU/L
same,ALT,time 28 day,32.2 IU/L
same,AST,time 28 day,58.6 IU/L
same,BUN,time 28 day,18.2 mg/dL
same,CRE,time 28 day,0.4 mg/dL
same,Ca,time 28 day,10.9 mg/dL
same,Cl,time 28 day,106.8 meq/L
same,DBIL,time 28 day,0.01 mg/dL
same,GLC,time 28 day,182.2 mg/dL
same,IP,time 28 day,5.7 mg/dL
same,K,time 28 day,4.5 meq/L
same,LDH,time 28 day,62.8 IU/L
same,Na,time 28 day,141.2 meq/L
same,PL,time 28 day,134.8 mg/dL
same,RALB,time 28 day,3.8 g/dL
same,TBIL,time 28 day,0.03 mg/dL
same,TC,time 28 day,62 mg/dL
same,TG,time 28 day,182.2 mg/dL
same,TP,time 28 day,5.7 g/dL
same,gamma-GTP,time 28 day,1 IU/L
